Test system: CML (carboxymethyl adducts of lysine) induced by glyoxal
Experiment: Inhibition of glyoxal-induced CML formation in cultured human dermal fibroblasts (immunofluorescence)
Assay type: cell-based
Settings: aminoguanidine 10 mM, positive reference, fibroblasts with 200 μM glyoxal for 7 days
Procedure: It is a question of evaluating the inhibitory activity of the extract of Chrysophyllum cainito with respect to CML (carboxymethyl adducts of lysine) induced by glyoxal as well as its protective effect on vimentin, the target of formation of the CMLs, in a culture of human dermal fibroblasts.
Normal adult human fibroblasts were cultivated at 37° C. and 5% CO2 on a cover slip in a Petri dish of diameter 60 at a rate of 30000 cells per cover slip. The incubation medium is DMEM medium (Dulbecco modified Eagle medium) supplemented with 10% fetal calf serum and penicillin/streptomycin (50 μg/ml). […]
The cells were washed with PBS (phosphate-buffered saline) and permeabilized with 0.1% Triton X-100 for 10 minutes. […] Before taking the reading, 4 rinsings with PBS are performed.
The cover slips are mounted on the glass slide and then examined with the fluorescence microscope (Nikon Eclipse 50i). […] The photomicrographs are analyzed using Lucia image analysis software. The FITC fluorescence images indicate the regions of localization of vimentin. The TRITC fluorescence images indicate the regions of localization of CML. The DAPI fluorescence images indicate the cell nuclei and therefore the number of cells per field (see FIGS. 1 to 4).
This intensity of fluorescence is shown relative to the number of cells per micrograph. […]

N=C(N)NN [Aminoguanidine]
inhibition of the formation of carboxymethyl adducts of lysine (CML), intensity of labeling: completely inhibits
inhibition of the formation of carboxymethyl adducts of lysine (CML), intensity of labeling (listed as aminoguanidine): completely inhibited

— US8293294B2, “Cosmetic composition comprising an aqueous extract of Chrysophyllum cainito” (Laboratories Clarins, priority 2008, dated 2012)
